This note sets out measurements from patent US12673961B2 (Agios Pharmaceuticals, Inc., priority 2022, dated 2026).

As usually defined, the AC50 is the midpoint of the concentration-response curve, whichever way the signal moves.

Some results are limits rather than exact numbers.

The target in this assay is T1, human PAH with the R408W mutation (Homo sapiens, UniProt P00439, R408W).
T1 construct: expressed in transfected cells
T1 sequence (P00439 1-452 R408W): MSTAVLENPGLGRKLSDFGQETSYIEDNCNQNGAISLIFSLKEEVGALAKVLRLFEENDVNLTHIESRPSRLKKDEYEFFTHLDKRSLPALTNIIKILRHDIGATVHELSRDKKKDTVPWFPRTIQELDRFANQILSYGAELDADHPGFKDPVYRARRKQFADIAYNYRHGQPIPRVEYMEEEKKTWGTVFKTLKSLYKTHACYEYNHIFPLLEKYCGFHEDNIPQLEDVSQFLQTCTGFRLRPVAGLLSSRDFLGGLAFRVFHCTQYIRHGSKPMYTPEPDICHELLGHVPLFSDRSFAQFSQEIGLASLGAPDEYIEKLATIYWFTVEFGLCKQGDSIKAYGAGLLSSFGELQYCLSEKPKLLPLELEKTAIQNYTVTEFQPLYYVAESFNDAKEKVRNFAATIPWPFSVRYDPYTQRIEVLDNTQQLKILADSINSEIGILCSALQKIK
As to the kind of experiment: Cell Based Phenylalanine Flux Assay.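 Further: Ten-point dose curve from 2-fold serial dilutions, run in duplicate at 0.5% DMSO final, tracer step used 20 µM sepiapterin and 800 µM labeled phenylalanine.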 The note with it: A375 cells expressing human R408W PAH; 24 hrs with compound, then sepiapterin and 13C9,15N-Phenylalanine for 4 hours; 13C-Tyrosine by LC-MS; average where tested multiple times; read-out: AC50.
Consider `Fc1cccc(F)c1-c1nnc(N2CCc3[nH]cnc3[C@@H]2c2cc3c(Cl)cccn3n2)o1` [Example 2062, (R)-2-(4-(4-chloropyrazolo [1,5-a]pyridin-2-yl)-1,4,6,7-tetrahydro-5H-imidazo [4,5-c]pyridin-5-yl)-5-(2,6-difluorophenyl)-1,3,4-oxadiazole], for which the AC50 was above 5 µM. For the compound `CC(C)(F)c1ncc(C(=O)N2CCc3[nH]cnc3[C@H]2c2cc3c(F)cccn3n2)o1` [Example 2064, (S)-(2-(2-fluoropropan-2-yl)oxazol-5-yl)(4-(4-fluoropyrazolo[1,5-a]pyridin-2-yl)-1,4,6,7-tetrahydro-5H-imidazo[4,5-c]pyridin-5-yl)methanone], the AC50 was below 0.5 µM. Take `Cc1c(-c2ncc(C(=O)N3CCc4[nH]cnc4[C@@H]3c3cc4c(C(F)F)cccn4n3)o2)cnn1C` [Example 2069, (R)-(4-(4-(difluoromethyl)pyrazolo[1,5-a]pyridin-2-yl)-1,4,6,7-tetrahydro-5H-imidazo [4,5-c]pyridin-5-yl)(2-(1,5-dimethyl-1H-pyrazol-4-yl)oxazol-5-yl)methanone]: the AC50 is above 5 µM. The same measure for `Cc1cccc2cc([C@H]3c4nc[nH]c4CCN3C(=O)c3ocnc3C3CC3)nn12` [Example 2071, (R)-(4-cyclopropyloxazol-5-yl)(4-(7-methylpyrazolo[1,5-a]pyridin-2-yl)-1,4,6,7-tetrahydro-5H-imidazo[4,5-c]pyridin-5-yl)methanone]: above 5 µM; for `Cc1cccn2nc([C@H]3c4nc[nH]c4CCN3C(=O)c3oc(-c4cnn(C)c4)nc3C3CC3)cc12` [Example 2075]: 1 to 5 µM; for `O=C(C1CCC1)N1CCc2[nH]cnc2[C@@H]1c1cc2c(F)cccn2n1` [Example 2081, (R)-cyclobutyl(4-(4-fluoropyrazolo[1,5-a]pyridin-2-yl)-1,4,6,7-tetrahydro-5H-imidazo[4,5-c]pyridin-5-yl)methanone]: above 5 µM.

For `Fc1ccc(-c2nnc(N3CCc4[nH]cnc4[C@@H]3c3cc4cccc(Cl)n4n3)o2)cc1` [Example 2087, (R)-2-(4-(7-chloropyrazolo [1,5-a]pyridin-2-yl)-1,4,6,7-tetrahydro-5H-imidazo [4,5-c]pyridin-5-yl)-5-(4-fluorophenyl)-1,3,4-oxadiazole], the AC50 is above 5 µM.

Consider `Fc1cccc(F)c1-c1nnc(N2CCc3[nH]cnc3[C@@H]2c2cc3cccc(Cl)n3n2)o1` [Example 2088, (R)-2-(4-(7-chloropyrazolo [1,5-a]pyridin-2-yl)-1,4,6,7-tetrahydro-5H-imidazo [4,5-c]pyridin-5-yl)-5-(2,6-difluorophenyl)-1,3,4-oxadiazole], for which the AC50 is above 5 µM. As to `Cc1cccc2cc([C@H]3c4nc[nH]c4CCN3c3nnc(-c4c(F)cccc4F)o3)nn12` [Example 2090, (R)-2-(2,6-difluorophenyl)-5-(4-(7-methylpyrazolo[1,5-a]pyridin-2-yl)-1,4,6,7-tetrahydro-5H-imidazo[4,5-c]pyridin-5-yl)-1,3,4-oxadiazole], the AC50 is above 5 µM. The same measure for `Cc1cccc2cc([C@@H]3c4nc[nH]c4CCN3c3ccc(C(F)(F)F)cn3)nn12` [Example 2097, (S)-4-(7-methylpyrazolo [1,5-a]pyridin-2-yl)-5-(5-(trifluoromethyl)pyridin-2-yl)-4,5,6,7-tetrahydro-1H-imidazo[4,5-c]pyridine]: 0.5 to 1 µM; for `CC(C)(C)c1ncc(C(=O)N2CCc3[nH]cnc3[C@H]2c2cc3c(F)cccn3n2)o1` [Example 2100, (S)-(2-(tert-butyl)oxazol-5-yl)(4-(4-fluoropyrazolo[1,5-a]pyridin-2-yl)-1,4,6,7-tetrahydro-5H-imidazo[4,5-c]pyridin-5-yl)methanone]: below 0.5 µM; for `Cn1cc(-c2nc(C3CC3)c(C(=O)N3CCc4[nH]cnc4[C@H]3c3cc4c(C(F)F)cccn4n3)o2)cn1` [Example 2114, (S)-(4-cyclopropyl-2-(1-methyl-1H-pyrazol-4-yl)oxazol-5-yl)(4-(4-(difluoromethyl)pyrazolo[1,5-a]pyridin-2-yl)-1,4,6,7-tetrahydro-5H-imidazo[4,5-c]pyridin-5-yl)methanone]: 0.5 to 1 µM.
